“Also recorded” adds a separate entry of the source.
Test system: C57BL/6J db/db mice
Assay: Prevention of diabetes and alleviation of hypertriglyceridemia in db/db mice (Example 15)
Format: in vivo
Conditions: 150 mg/kg/day in chow for 9 weeks
Description: Blood samples were taken at 8-10 AM once a week for 9 weeks under non-fasting condition. Food intake and body weight were measured every 1-3 days. Plasma glucose and triglyceride concentrations were determined colorimetrically using kits from Sigma Chemical Co (No. 315 and No. 339, St. Louis, Mo., USA). Plasma insulin levels were measured using RIA assay kit purchased from Linco Research (St. Charles, Mo.).

With `CC(=O)NCCOC(=O)C(Oc1cccc(C(F)(F)F)c1)c1ccc(Cl)cc1` (single isomer, unassigned; (-)) [(−) halofenate, (−) 2-acetamidoethyl 4-chlorophenyl-(3-trifluoromethylphenoxy)acetate] the “increase of plasma glucose levels with age, in words” value was “prevented or significantly delayed”, the “plasma insulin concentration, in words” value was “maintained the plasma insulin concentration” and the “plasma triglyceride concentration, in words” value was “alleviated the increase of plasma triglyceride concentration; also recorded: alleviated hyperlipidemia”.
